Read-outs that look alike come from different tables or passages of the source.
Key:
[1] = system: IL-3 production in PHA-stimulated mouse spleen cells; assay: suppression of IL-3 production in PHA-stimulated mouse spleen cells; type: cell-based; details: for inhibition at 0.001 µg/mL / inhibition at 0.01 µg/mL / inhibition at 0.1 µg/mL / inhibition at 1 µg/mL: Mus musculus, 24 h, read-out: Suppression
Method: The suppression of IL-2 and IL-3 production in the mitogen-stimulated mouse spleen cells was examined as follows:
The spleen was resected from 5- to 8-week-old male C3H/HeN mice, and a single cell suspension of spleen cells was prepared by using the RPMI1640 culture medium. After hemolytic treatment, the concentration of the suspension was adjusted to 10^7 cells/ml by using the RPMI1640 culture medium supplemented with 20% FCS, to which 10 μg/ml of phytohemagglutinin (PHA) was added as mitogen. […] After termination of culture, the supernatant was collected and used as the culture supernatant of PHA-stimulated mouse spleen cells.
The IL-3 activity was assayed as follows:
IL-3-dependent mouse cell line FDC-P2 cells were suspended in the RPMI1640 culture medium supplemented with 10% FCS to the concentration of 2×10^5 cells/ml. One hundred μl of the cell suspension and 100 μl of the two-fold serial dilution of the culture supernatant of PHA-stimulated mouse spleen cells described above were added to a 96-well flat-bottomed microtest plate. […] The IL-3 activity is expressed in U/ml as the dilution at which the absorbancy measured by MTT method was 50% of the maximum.

CTLL-2 cells = assay: suppression of proliferation of IL-2-dependent mouse cell line CTLL-2 induced by IL-2; type: cell-based; details: IL-2 50 U/ml; for inhibition at 0.001 µg/mL / inhibition at 0.01 µg/mL / inhibition at 0.1 µg/mL / inhibition at 1 µg/mL: Mus musculus, CTLL-2, 68 h
Method: IL-2-dependent mouse cell line CTLL-2 cells were suspended in the RPMI1640 culture medium supplemented with 30% FCS to the concentration of 4×10^5 cells/ml. Fifty μl of the cell suspension, 50 μl of 200 U/ml recombinant human IL-2 (rhIL-2) and 100 μl of the test substance were added to a 96-well flat-bottomed microtest plate. […] The percent suppression (%) was calculated by the following formula. [formula]

MOLT4 = assay: cytotoxicity to cultured tumor cell line MOLT4; type: cell-based, human
Method: (§1) Cytotoxicity to various human tumor cell lines was examined as follows:
(§2) Cells of human cell lines, K562, MOLT4, U937 and HL60 were respectively suspended to the concentration of 4×10^5 cells/ml in the RPMI1640 culture medium supplemented with 20% FCS. Fifty μl of each suspension was added to each well of a 96-well microtest plate to which 50 μl of the test solution had been added. After culturing the suspension at 37° C. in an atmosphere of 5% carbon dioxide for 72 hours, the absorbancy at 570 nm was measured in the same way as with the colorimetry using MTT in Experiment Example 1, and the percent suppression was calculated by the following formula, which was used as an index of cytotoxicity.

[2] = cytotoxicity to cultured tumor cell line MOLT4; type: cell-based, human; details: human, molt4 cells, read-out: Suppression
Method: as §1, §2

[3] = system: allo-reactive cytotoxic T cells in spleen of EL4-immunized BALB/c mice; assay: suppression of allo-reactive cytotoxic T cells induced by immunization of mouse with allogenic cells; type: in vivo
Method: Male 5- to 7-week-old BALB/c mice (H-2^d) were immunized with leukemia cell EL4 derived from C57BL/6 mice (H-2^b) (10^7 cells/mouse, intraperitoneal administration), and the test substance was administered intraperitoneally 5 times at the doses of 0.001 to 3 mg/kg/day or orally at the doses of 0.3 to 10 mg/kg/day from the day of immunization. Nine to ten days after immunization, the spleen was resected from the mice to prepare a single cell suspension and the suspension was used as effector cell suspension. The ^51 Cr-release assay was carried out in the same way as in Experiment Example 3, using EL4 cells as the target cells to measure the cytotoxic activity.
The activity of allo-reactive cytotoxic T cell is indicated by lytic unit (LU) per spleen. One lytic unit (LU) is defined as the number of effector cells required to cause 25% lysis of 5×10^3 target cells. At the same time, the body weight of mouse and number of spleen cells were also determined.

[4] = cytotoxicity to cultured tumor cell line K562; details: human, k562 cells, Suppression
Method: as §1, §2

K562 = assay: cytotoxicity to cultured tumor cell line K562
Method: as §1, §2

[5] = 0.001 μg/ml, Table 6A, read-out: Suppression
[6] = 0.01 μg/ml, Table 6A, read-out: Suppression
[7] = 0.1 μg/ml, Table 6A, read-out: Suppression
[8] = 1 μg/ml, Table 6A, read-out: Suppression
[9] = 0.01 mg/kg/day ip × 5, Table 9A
[10] = 0.03 mg/kg/day ip × 5, Table 9A

## CCCCCCC(O)C=CCCCCC=CCC(O)C(O)C(N)(CO)C(=O)O (stereo not shown) [Example 1]
[1]; 0.001 μg/ml
  IL-3 activity: 34.3 U/ml
  inhibition at 0.001 µg/mL: 6.8%
[1]; 0.01 μg/ml
  IL-3 activity: 27.9 U/ml
  inhibition at 0.01 µg/mL: 24.2%
[1]; 0.1 μg/ml
  IL-3 activity: 12.2 U/ml
  inhibition at 0.1 µg/mL: 66.8%
[1]; 1 μg/ml
  IL-3 activity: 10.5 U/ml
  inhibition at 1 µg/mL: 71.5%
CTLL-2 cells; 0.001 μg/ml, Table 6A
  optical density (OD570): 0.508
CTLL-2 cells; 0.01 μg/ml, Table 6A
  optical density (OD570): 0.556
CTLL-2 cells; 0.1 μg/ml, Table 6A
  optical density (OD570): 0.009
CTLL-2 cells; 1 μg/ml, Table 6A
  optical density (OD570): 0.005
CTLL-2 cells; [5]
  inhibition at 0.001 µg/mL: 13.3%
CTLL-2 cells; [6]
  inhibition at 0.01 µg/mL: 5.1%
CTLL-2 cells; [7]
  inhibition at 0.1 µg/mL: 98.6%
CTLL-2 cells; [8]
  inhibition at 1 µg/mL: 99.3%

## CCCCCCCCCCCCCCCC[C@@H](O)[C@H](O)[C@@](N)(CO)C(=O)O [Example 2]
MOLT4; 0.1 μg/ml
  Absorbancy: 1.144 ± 0.040
MOLT4; 1 μg/ml
  Absorbancy: 1.027 ± 0.009
MOLT4; 10 μg/ml
  Absorbancy: 1.045 ± 0.041
[2]; 0.1 μg/ml
  cytotoxicity at 72 h: 0.9%
[2]; 1 μg/ml
  cytotoxicity at 72 h: 11%
[2]; 10 μg/ml
  cytotoxicity at 72 h: 9.4%
[3]; [9]
  Body weight 9 days after immunization: 29.0 ± 1.7 g
  Cytotoxic T cell activity: 724 ± 202 LU/spleen
  Cytotoxic T cell activity, suppression: 28.5%
  Number of spleen cells: 3.2 ± 0.5 × 10^8 cell
[3]; [10]
  Body weight 9 days after immunization: 28.5 ± 1.0 g
  Cytotoxic T cell activity: 536 ± 272 LU/spleen
  Cytotoxic T cell activity, suppression: 47.0%
  Number of spleen cells: 2.6 ± 0.6 × 10^8 cell
[3]; 0.1 mg/kg/day ip × 5, Table 9A
  Body weight 9 days after immunization: 28.3 ± 1.4 g
  Cytotoxic T cell activity: 527 ± 172 LU/spleen
  Cytotoxic T cell activity, suppression: 47.9%
  Number of spleen cells: 2.8 ± 0.5 × 10^8 cell
[3]; 0.3 mg/kg/day ip × 5, Table 9A
  Body weight 9 days after immunization: 29.0 ± 1.8 g
  Cytotoxic T cell activity: 525 ± 58 LU/spleen
  Cytotoxic T cell activity, suppression: 48.1%
  Number of spleen cells: 3.1 ± 0.5 × 10^8 cell
[3]; 0.3 mg/kg/day po × 5, Table 9B
  Body weight 9 days after immunization: 28.0 ± 0.7 g
  Cytotoxic T cell activity: 323 ± 97 LU/spleen
  Cytotoxic T cell activity, suppression: 65.0%
  Number of spleen cells: 1.4 ± 0.2 × 10^8
[3]; 1 mg/kg/day ip × 5, Table 9A
  Body weight 9 days after immunization: 27.3 ± 1.9 g
  Cytotoxic T cell activity: 318 ± 128 LU/spleen
  Cytotoxic T cell activity, suppression: 68.6%
  Number of spleen cells: 3.2 ± 0.6 × 10^8 cell
[3]; 1 mg/kg/day po × 5, Table 9B
  Body weight 9 days after immunization: 29.0 ± 1.7 g
  Cytotoxic T cell activity: 473 ± 92 LU/spleen
  Cytotoxic T cell activity, suppression: 48.7%
  Number of spleen cells: 1.4 ± 0.3 × 10^8
[3]; 3 mg/kg/day ip × 5, Table 9A
  Body weight 9 days after immunization: 28.6 ± 1.7 g
  Cytotoxic T cell activity: < 50 LU/spleen
  Cytotoxic T cell activity, suppression: 95.1%
  Number of spleen cells: 2.7 ± 0.4 × 10^8 cell
[3]; 3 mg/kg/day po × 5, Table 9B
  Body weight 9 days after immunization: 29.4 ± 1.5 g
  Cytotoxic T cell activity: 427 ± 100 LU/spleen
  Cytotoxic T cell activity, suppression: 53.7%
  Number of spleen cells: 2.0 ± 0.3 × 10^8
[3]; 10 mg/kg/day po × 5, Table 9B
  Body weight 9 days after immunization: 27.4 ± 1.7 g
  Cytotoxic T cell activity: 274 ± 82 LU/spleen
  Cytotoxic T cell activity, suppression: 70.3%
  Number of spleen cells: 1.6 ± 0.3 × 10^8
[3]; 5 times intraperitoneal or oral
  induction of allo-reactive cytotoxic T cells (in words): strongly suppresses the induction of allo-reactive cytotoxic T cells
[1]; 0.001 μg/ml
  IL-3 activity: 26.0 U/ml
[1]; 0.01 μg/ml
  IL-3 activity: 13.9 U/ml
[1]; 0.1 μg/ml
  IL-3 activity: 11.3 U/ml
[1]; 1 μg/ml
  IL-3 activity: 7.5 U/ml
[1]
  inhibition at 0.001 µg/mL: 29.3%
  inhibition at 0.01 µg/mL: 62.2%
  inhibition at 0.1 µg/mL: 69.3%
  inhibition at 1 µg/mL: 79.6%
CTLL-2 cells; 0.001 μg/ml, Table 6A
  optical density (OD570): 0.555
CTLL-2 cells; 0.001 μg/ml, Table 6B
  optical density (OD570): 0.898
CTLL-2 cells; 0.01 μg/ml, Table 6A
  optical density (OD570): 0.543
CTLL-2 cells; 0.01 μg/ml, Table 6B
  optical density (OD570): 0.880
CTLL-2 cells; 0.1 μg/ml, Table 6A
  optical density (OD570): 0.558
CTLL-2 cells; 0.1 μg/ml, Table 6B
  optical density (OD570): 0.774
CTLL-2 cells; 1 μg/ml, Table 6A
  optical density (OD570): 0.161
CTLL-2 cells; 1 μg/ml, Table 6B
  optical density (OD570): 0.508
CTLL-2 cells; read-out: Suppression, 0.001 μg/ml, Table 6A
  inhibition at 0.001 µg/mL: 5.3%
CTLL-2 cells; read-out: Suppression, 0.001 μg/ml, Table 6B
  inhibition at 0.001 µg/mL: 6.7%
CTLL-2 cells; read-out: Suppression, 0.01 μg/ml, Table 6A
  inhibition at 0.01 µg/mL: 7.4%
CTLL-2 cells; read-out: Suppression, 0.01 μg/ml, Table 6B
  inhibition at 0.01 µg/mL: 8.7%
CTLL-2 cells; read-out: Suppression, 0.1 μg/ml, Table 6A
  inhibition at 0.1 µg/mL: 4.8%
CTLL-2 cells; read-out: Suppression, 0.1 μg/ml, Table 6B
  inhibition at 0.1 µg/mL: 20%
CTLL-2 cells; read-out: Suppression, 1 μg/ml, Table 6A
  inhibition at 1 µg/mL: 72.6%
CTLL-2 cells; read-out: Suppression, 1 μg/ml, Table 6B
  inhibition at 1 µg/mL: 48.4%
[4]; 0.1 μg/ml
  cytotoxicity at 72 h: 0.7%
[4]; 1 μg/ml
  cytotoxicity at 72 h: 2.9%
[4]; 10 μg/ml
  cytotoxicity at 72 h: 4.4%
K562; 0.1 μg/ml
  Absorbancy: 1.128 ± 0.025
K562; 1 μg/ml
  Absorbancy: 1.103 ± 0.045
K562; 10 μg/ml
  Absorbancy: 1.086 ± 0.045

## CCCCCCC1(CCCCCC/C=C/C[C@@H](O)[C@H](O)[C@@](N)(CO)C(=O)O)SCCS1 [Example 3]
[1]; 0.001 μg/ml
  IL-3 activity: 42.2 U/ml
  inhibition at 0.001 µg/mL: 0%
[1]; 0.01 μg/ml
  IL-3 activity: 45.3 U/ml
  inhibition at 0.01 µg/mL: 0%
[1]; 0.1 μg/ml
  IL-3 activity: 42.2 U/ml
  inhibition at 0.1 µg/mL: 0%
[1]; 1 μg/ml
  IL-3 activity: 27.9 U/ml
  inhibition at 1 µg/mL: 24.2%
CTLL-2 cells; 0.001 μg/ml, Table 6A
  optical density (OD570): 0.551
CTLL-2 cells; 0.01 μg/ml, Table 6A
  optical density (OD570): 0.449
CTLL-2 cells; 0.1 μg/ml, Table 6A
  optical density (OD570): 0.471
CTLL-2 cells; 1 μg/ml, Table 6A
  optical density (OD570): 0.152
CTLL-2 cells; [5]
  inhibition at 0.001 µg/mL: 6%
CTLL-2 cells; [6]
  inhibition at 0.01 µg/mL: 23.4%
CTLL-2 cells; [7]
  inhibition at 0.1 µg/mL: 19.7%
CTLL-2 cells; [8]
  inhibition at 1 µg/mL: 74.2%

Source: patent US5068247A, “2-aminopentanoic acid compounds and their use as immunosuppressants” (priority 1989, dated 1991)
